Measurements from patent publication US7445894B2, “Compositions and methods for detection and isolation of phosphorylated molecules” (priority 2002, dated 2008).

How the values were obtained:
ovalbumin = target: T1, ovalbumin (Gallus gallus, UniProt P01012); experiment: Fluorescence polarization of Compound 2-Ga3+ with phosphoprotein; assay type: binding; settings: 1.0 μM Compound 2, 100 μM ovalbumin plus 1 μM gallium chloride
T1 construct: purchased Sigma Chemical Company A-7641
T1 sequence (P01012 1-386): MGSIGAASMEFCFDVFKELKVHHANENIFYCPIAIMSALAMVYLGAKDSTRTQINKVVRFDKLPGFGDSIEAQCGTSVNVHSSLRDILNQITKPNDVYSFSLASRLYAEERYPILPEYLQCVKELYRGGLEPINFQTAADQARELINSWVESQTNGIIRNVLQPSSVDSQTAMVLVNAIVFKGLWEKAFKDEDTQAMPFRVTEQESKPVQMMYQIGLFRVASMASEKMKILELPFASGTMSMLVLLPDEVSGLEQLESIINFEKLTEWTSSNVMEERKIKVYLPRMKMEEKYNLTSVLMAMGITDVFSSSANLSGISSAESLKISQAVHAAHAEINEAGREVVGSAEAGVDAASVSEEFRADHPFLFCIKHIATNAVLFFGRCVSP
Protocol: First, an assay was conducted with a (1) phosphoprotein (ovalbumin) and a (2) control non-phosphorylated protein (lysozyme). A modified binding solution containing 1.0 μM Compound 2 was incubated in 50 mM 2-(N-morpholino)ethanesulfonic acid (pH 3.0 to 3.5), 500 mM NaCl at room temperature in parallel to solutions containing, in addition, (a) 1 μM gallium chloride, (b) 100 μM lysozyme plus 1 μM gallium chloride, or (c) and 100 μM ovalbumin plus 1 μM gallium chloride. The fluorescence polarization of the resulting solutions was then measured in a fluorescence spectrophotometer with excitation at 530 nm and emission at 545 to 700 nm. The integrated polarized emission spectra yielded anisotropy “r values” of: r=0.10+/−0.003+/−0.02 (Compound 2 plus gallium); r=0.10+/−0.002 (Compound 2 plus lysozyme non-phosphorylated control); r=0.34+/−0.002 (Compound 2 plus gallium plus ovalbumin), indicating phosphorylation-dependent binding of the Compound 2 to this phosphoprotein (see FIG. 10A)

β-casein = target: T2, β-casein (Bos taurus, UniProt P02666); experiment: Phosphoprotein detection on HydroGel microarray; settings: pentaphosphorylated protein, binding solution with gallium chloride
T2 sequence (P02666 16-224): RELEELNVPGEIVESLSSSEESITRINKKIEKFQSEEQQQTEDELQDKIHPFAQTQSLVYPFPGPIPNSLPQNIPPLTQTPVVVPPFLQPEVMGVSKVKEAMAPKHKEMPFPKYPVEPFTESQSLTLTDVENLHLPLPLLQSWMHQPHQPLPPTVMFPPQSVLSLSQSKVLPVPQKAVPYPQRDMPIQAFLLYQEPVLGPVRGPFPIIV
Protocol: The protein was loaded in a two-fold dilution series from 166 pg-0.324 pg on the microarray.
Four specific, purified proteins including β-casein, ovalbumin, pepsin and bovine serum albumin were arrayed from a source plate (384 well plate) at a concentration of 0.975 μg/mL-0.5 mg/mL in water, onto HydroGel coated slides (Perkin Elmer), using the BioChip Arrayer™ (Packard Instrument Co., Meriden, Conn.). The BioChip Arrayer™ utilizes a PiezoTip™ Dispenser consisting of 4 glass capillaries. Proteins were dispensed from the PiezoTip™ by droplets 333 pL in volume to create array spots 175 microns in diameter with a 500 micron horizontal and vertical pitch (pitch=center to center spacing of spots). Proteins were arrayed in duplicate in four rows, with 10 dilution points, resulting in an array of 160 spots. The resulting concentration range of the array was 166.5 pg/spot-0.325 pg/spot. For detection of phosphoproteins, slides were incubated for 1 hour on a rotator in 1 μM of Compound 2, in buffer containing 0.5 M NaCl, 20% 1,2-propanediol, 1 μM GaCl3, and 0.05 M NaOAc, pH 4.0. Slides were then washed for 1 hour on a rotator in 0.05 M NaOAc, pH 4.0, containing 10% methanol followed by a 15 minute water wash. […] Phosphate content per protein was determined to be as follows: β-casein, five phosphates; ovalbumin, two phosphates; pepsin, one phosphate; and BSA, no phosphates.

For Rhod-5F [Compound 2], the anisotropy r value (ovalbumin) was 0.34+/−0.002 and the “amount detected on HydroGel microarray” value (β-casein) was 0.65 pg.
